{"source": "patent US20220251152A1", "about": "“COMPOSITIONS AND METHODS FOR SELECTIVE PROTEIN DEGRADATION” (Novartis AG, priority 2019, published 2022)", "key": {"[1]": {"target": "T1, IKZF3 136-180 and 236-249-tagged NanoLuciferase (Homo sapiens, UniProt Q96SW2+Q9UKT9, DEL181-196/S197T)", "T1 construct": "expressed in transfected cells; host or cells: HEK293T", "format": "cell-based", "details": "1-hour pre-treatment (10 μM MG132; 128 or 12.8 ng/mL cyclohexamide)", "procedure": "DMSO was included as a vehicle control. Luminescence was measured by reading each 384-well plate on a ViewLux® with 1-second and 5-second exposures. The data was imported into Spotfire® and visualizations were made by doing a NC3 normalization according to the following formula: 100*([Luminescence]/[DMSO])."}, "[2]": {"system": "IKZF3 degron-tagged melanogenesis associated transcription factor (MITF)", "assay": "Western blot of IKZF3-tagged MITF in HEK293T cells", "format": "cell-based, human", "details": "for degradation of tagged MITF mediated by IMiD: 10 μM compound for 24 hours, IKZF3 136-180 and 236-249- and lysine free-tagged MITF; for ability of the tag to mediate lenalidomide-dependent degradation of MITF: HEK293T, Western blot", "method": "IKZF3-based degradation tags were evaluated for their ability to facilitate the degradation of melanogenesis associated transcription factor (MITF) or avian myelocytomatosis viral oncogene (MYC) homolog by Western blot. In addition to the IKZF3-based degradation tags, MITF and MYC were also fused to a FLAG tag to facilitate their detection using an anti-FLAG antibody.\nDMSO was used as vehicle control."}, "[3]": {"target": "IKZF3 136-180 and 236-249-tagged CD19 (Homo sapiens, UniProt P15391)", "details": "10 μM MG132 pre-treatment, 10 μM lenalidomide", "procedure": "In particular, flow cytometry analysis was conducted to determine whether there was a difference between the total amount of target protein degraded and the total amount of target protein expressed on the cell surface.\nCD19 was stained with anti-human CD19 antibody (BD Pharmingen 555413)."}, "[4]": {"system": "IKZF3 136-180 and 236-249-tagged NanoLuciferase", "details": "10 μM MG132 one-hour pre-treatment, then 100 μM lenalidomide", "source_text": "Samples were pelleted, lysed, run on a protein gel, transferred to a membrane, probed with antibody and developed with film."}, "[5]": {"system": "HilD-tagged CAR19 or FurON-CAR19 (NFAT luciferase reporter)", "assay": "JNL NFAT luciferase reporter assay, lenalidomide dose-response at three treatment time points", "format": "cell-based, human", "procedure": "This study used the JNL cell line described above, which is a Jurkat cell line modified with an NFAT luciferase reporter. Co-culturing of CAR19-expressing JNL cells and CD19-expressing B cells activates the NFAT signaling, leading to luciferase expression.\nFor target cell co-culture, K562 cells or CD19-expressing K562 cells were added to each well containing JNL cells and cultured on a GNF Systems Ultra-high throughput screening system in a 37° C. and 5% CO2 incubator."}, "[6]": {"target": "T2, HilD-Tau (wild type) (Homo sapiens, UniProt P10636+Q96SW2)", "T2 construct": "expressed in transfected cells; host or cells: HEK293T", "assay": "Quantification of HilD-Tau degradation by Western analysis in HEK293T cells", "format": "cell-based", "details": "1 μM MLN4924 co-treatment including 1 hour pretreatment", "procedure": "One day prior to transfection, HEK293T cells were plated at a density of 150,000 per well in a 24 well plate. […] Cells were incubated overnight. […] Plates were incubated on ice with occasional shaking for 15 minutes. Lysate was then cleared by centrifugation at 15000 g, 4° C. for 15 minutes. LDS buffer and reducing agent were added to the cleared lysate and then samples were heated at 95° C. for 8 minutes. Samples were run on a 10% bis-tris gel at 150V for 70 minutes. Blots were transferred using the Biorad turboblot (Mixed molecular weight setting). Blots were probed with DAKO Tau (total tau) (Dako #A0024), actin (Cell signaling technologies #3700S), and AT8 (phospho-Tau) (Thermo Fisher #MN1020)."}, "[7]": {"system": "NanoLuciferase fused to various IKZF3-based degradation tags", "assay": "Western blot of variant IKZF3-based degradation tags fused to NanoLuciferase in HEK293T cells", "format": "cell-based, human", "details": "tag fused to N-terminus of NanoLuciferase", "method": "Additionally, the IKZF3-based degradation tags were modified using the following strategies:\n(1) deleting N-terminal and/or C-terminal amino acid residues;\nProtein degradation was measured using western blot as described in Example 2."}, "[8]": {"system": "CAR19 fused to HilD tag and/or FurON", "assay": "Western blot of CAR19 fused to HilD tag and/or FurON in JNL cells", "format": "cell-based, human", "details": "10 μM lenalidomide, 24 hours; FurON constructs with 1 μM bazedoxifene", "procedure": "Viruses were prepared from maxi preps and used to transduce JNL cells. Either 275 μL of viral supernatant or 700 μL of viral supernatant was used for transduction. JNL cells are Jurkat cells engineered with a luciferase gene under control of the NFAT promoter.\nBriefly, cells were diluted to 0.5×10^6 in 3 mL total in 6 well dishes. […] Bazedoxifene was added at a final concentration of 1 μM to every well that contained a cell line expressing a fusion comprising FurON. […] Cells were incubated at 37° C. and 5% CO2 overnight.\nLysates were centrifuged, supernatant transferred to new tubes and protein quantities read by Lowry Assay (BioRad 5000111). Each sample was normalized to 30 μg total protein in a 20 μL volume with 4× sample buffer (Thermo Scientific NP0007) and 10× reducing agent (Thermo Scientific NP0009). Samples were subjected to Western blot analysis using a mouse anti-V5 antibody (Thermo Scientific MA5-15253) at 1:1000 dilution, a mouse anti-actin antibody (Sigma Aldrich A5441) at 1:10000 dilution, and/or a mouse anti-CD3z antibody (BD 551034) at 1:1000 dilution.\nCells were harvested and subjected to Western blot as described above using a mouse anti-actin antibody (Sigma Aldrich A5441) at 1:10000 dilution or a mouse anti-CD3zeta antibody (BD 551034) at 1:1000 dilution."}}, "note": "“Also recorded” adds a separate entry of the source. Where a SMILES comes first, the peptide text is derived from it. The star is where a group is joined. Cbz = O=C(OCc1ccccc1)*"}
{"molecule": "CC(C)C[C@@H](C=O)NC(=O)[C@H](CC(C)C)NC(=O)[C@H](CC(C)C)NC(=O)OCc1ccccc1", "note": "[MG132] (Cbz-Leu-Leu-Leu-aldehyde)", "values": [{"measurement": "effect of pre-treatment on lenalidomide-dependent degradation of NanoLuciferase", "setting": "[1]", "value": "blocked"}, {"measurement": "effect of MG132 on lenalidomide-dependent degradation of tagged MITF", "setting": "[2]; MG132 treatment", "value": "blocked"}, {"measurement": "effect of MG132 on lenalidomide-induced reduction of surface CD19", "setting": "[3]", "value": "partially blocked"}, {"measurement": "effect of MG132 on lenalidomide-dependent degradation", "setting": "[4]", "value": "not observed; also recorded: blocked"}, {"measurement": "rescue by MG132 of lenalidomide-induced reduction of reporter signal", "setting": "[5]; HilD-tagged CAR19 or lysine-free-HilD-tagged CAR19 (constructs 769, 770)", "value": "partially rescued"}, {"measurement": "rescue by MG132 of lenalidomide-induced reduction of reporter activation", "setting": "[5]; construct 767, MG132 5 hours prior to target cells", "value": "mostly rescued"}]}
{"molecule": "NS(=O)(=O)OC[C@@H]1C[C@@H](n2ccc3c(N[C@H]4CCc5ccccc54)ncnc32)C[C@@H]1O", "note": "[MLN4924]", "values": [{"measurement": "effect of MLN4924 on lenalidomide-induced degradation of Tau", "setting": "[6]", "value": "sensitive; also recorded: prevented degradation of Tau"}]}
{"molecule": "C[C@@H]1C[C@@H]([C@H](O)CC2CC(=O)NC(=O)C2)C(=O)[C@@H](C)C1", "note": "[cyclohexamide]", "values": [{"measurement": "effect of pre-treatment on lenalidomide-dependent degradation of NanoLuciferase", "setting": "[1]", "value": "No obvious reduction"}]}
{"molecule": "Nc1cccc2c1C(=O)N(C1CCC(=O)NC1=O)C2=O", "note": "(centres unmarked) [pomalidomide, 4-amino-2-(2,6-dioxopiperidin-3-yl)isoindoline-1,3-dione, reference compound]", "values": [{"measurement": "degradation of tagged MITF mediated by IMiD", "setting": "[2]", "value": "effectively facilitated degradation of tagged MITF"}, {"measurement": "degradation of tagged MITF mediated by IMiD", "setting": "[2]; listed as Pomalidomide", "value": "slightly greater extent than lenalidomide"}]}
{"molecule": "O=C1CCC(N2C(=O)c3ccccc3C2=O)C(=O)N1", "note": "(centres unmarked) [thalidomide, 2-(2,6-dioxopiperidin-3-yl)isoindoline-1,3-dione, reference compound]", "values": [{"measurement": "degradation of tagged MITF mediated by IMiD", "setting": "[2]", "value": "much less effective"}]}
{"molecule": "IKZF3 136-180 MALEK: residues 236-249 replaced with helix MALEKMALEKMALE, SEQ ID NO: 85", "values": [{"measurement": "ability of the tag to facilitate lenalidomide-dependent degradation of NanoLuciferase", "setting": "[7]", "value": "retained the ability to facilitate lenalidomide-dependent degradation; also recorded: facilitated lenalidomide-induced degradation"}]}
{"molecule": "IKZF3 136-180 Q147H: variant of IKZF3 136-180 with glutamine at position 147 replaced with histidine, SEQ ID NO: 27", "values": [{"measurement": "ability of the tag to mediate lenalidomide-dependent degradation of MITF", "setting": "[2]", "value": "blocked the ability of IKZF3 136-180 to mediate the lenalidomide-dependent degradation of MITF; also recorded: did not show degradation"}]}
{"molecule": "IKZF3 136-180 and 236-249 K245R: tag with lysine at position 245 mutated to arginine, SEQ ID NO: 84 (HKRSHTGERPFQCNQCGASFTQKGNLLRHIKLHTGEKPFKCHLCNTASAEARHIRAEMG; source: /note=\"Description of Unknown: IKZF3 sequence\")", "values": [{"measurement": "ability of the tag to facilitate lenalidomide-dependent degradation of NanoLuciferase", "setting": "[7]", "value": "facilitated lenalidomide-induced degradation"}, {"measurement": "ability of the tag to facilitate lenalidomide-dependent degradation of NanoLuciferase", "setting": "[7]; listed as SEQ ID NO: 84", "value": "did not significantly impact the ability of the tag to mediate degradation"}]}
{"molecule": "IKZF3 136-180 and 236-249 K245S: tag with lysine at position 245 mutated to serine, SEQ ID NO: 100 (HKRSHTGERPFQCNQCGASFTQKGNLLRHIKLHTGEKPFKCHLCNTASAEARHISAEMG; source: /note=\"Description of Unknown: IKZF3 sequence\")", "values": [{"measurement": "ability of the tag to facilitate lenalidomide-dependent degradation of NanoLuciferase", "setting": "[7]", "value": "facilitated lenalidomide-induced degradation"}, {"measurement": "ability of the tag to facilitate lenalidomide-dependent degradation of NanoLuciferase", "setting": "[7]; listed as SEQ ID NO: 100", "value": "did not significantly impact the ability of the tag to mediate degradation"}]}
{"molecule": "IKZF3 136-180 and 236-249: IKZF3-based degradation tag with amino acid residues 136-180 and 236-249 of human IKZF3, SEQ ID NO: 3 (HKRSHTGERPFQCNQCGASFTQKGNLLRHIKLHTGEKPFKCHLCNTASAEARHIKAEMG; source: /note=\"Description of Unknown: IKZF3 sequence\")", "values": [{"measurement": "ability of the tag to mediate lenalidomide-dependent degradation of MITF", "setting": "[2]", "value": "more effective than IKZF3 136-180"}, {"measurement": "ability of the tag to facilitate lenalidomide-dependent degradation of NanoLuciferase", "setting": "[7]", "value": "facilitated lenalidomide-dependent degradation of NanoLuciferase; also recorded: facilitated lenalidomide-induced degradation"}]}
{"molecule": "IKZF3 136-180: tag with amino acid residues 136-180 of IKZF3, SEQ ID NO: 5", "values": [{"measurement": "ability of the tag to mediate lenalidomide-dependent degradation of MITF", "setting": "[2]", "value": "to a lesser degree than IKZF3 136-180 and 236-249"}, {"measurement": "ability of the tag to facilitate lenalidomide-dependent degradation of NanoLuciferase", "setting": "[7]", "value": "able to mediate lenalidomide-dependent degradation"}]}
{"molecule": "IKZF3 140-170 MALEK: tag comprising the amino acid sequence of SEQ ID NO: 87", "values": [{"measurement": "ability of the tag to facilitate lenalidomide-dependent degradation of NanoLuciferase", "setting": "[7]", "value": "did not mediate lenalidomide-induced degradation; also recorded: did not mediate lenalidomide induced degradation"}]}
{"molecule": "IKZF3 141-163 MALEK: tag comprising the amino acid sequence of SEQ ID NO: 88 (TGERPFQCNQCGASFTQKGNLLRMALEKMALEKMALE; source: /note=\"Description of Unknown: IKZF3 sequence\")", "values": [{"measurement": "ability of the tag to facilitate lenalidomide-dependent degradation of NanoLuciferase", "setting": "[7]", "value": "did not mediate lenalidomide-induced degradation; also recorded: did not mediate lenalidomide induced degradation"}]}
{"molecule": "IKZF3 145-155 MALEK: tag comprising the amino acid sequence of SEQ ID NO: 89 (PFQCNQCGASFMALEKMALEKMALE; source: /note=\"Description of Unknown: IKZF3 sequence\")", "values": [{"measurement": "ability of the tag to facilitate lenalidomide-dependent degradation of NanoLuciferase", "setting": "[7]", "value": "did not mediate lenalidomide-induced degradation; also recorded: did not mediate lenalidomide induced degradation"}]}
{"molecule": "lysine free IKZF3 136-180 and 236-249: variant in which every lysine residue in the tag was mutated to arginine, SEQ ID NO: 4", "values": [{"measurement": "ability of the tag to mediate lenalidomide-dependent degradation of MITF", "setting": "[2]", "value": "did not significantly impact the ability of this tag to mediate lenalidomide-dependent degradation of MITF"}]}
{"molecule": "construct 765: signal peptide, FurOn, and CAR19 (protein) RSSLALSLTADQMVSALLDAEPPILYSEYDPTRPFSEASMMGLLTNLADRELVHMINWAKRVPGFVDLALHDQVHLLECAWMEILMIGLVWRSMEHPGKLLFAPNLLLDRNQGKCVEGGVEIFDMLLATSSRFRMMNLQGEEFVCLKSIILLNSGVYTFLSSTLKSLEEKDHIHRVLDKITDTLIHLMAKAGLTLQQQHQRLAQLLLILSHIRHMSSKRMEHLYSMKCKNVVPLSDLLLEMLDAHRLGTGAEDPRPSRKRRSLGDVGEIVMTQSPATLSLSPGERATLSCRASQDISKYLNWYQQKPGQAPRLLIYHTSRLHSGIPARFSGSGSGTDYTLTISSLQPEDFAVYFCQQGNTLPYTFGQGTKLEIKGGGGSGGGGSGGGGSQVQLQESGPGLVKPSETLSLTCTVSGVSLPDYGVSWIRQPPGKGLEWIGVIWGSETTYYQSSLKSRVTISKDNSKNQVSLKLSSVTAADTAVYYCAKHYYYGGSYAMDYWGQGTLVTVSSTTTPAPRPPTPAPTIASQPLSLRPEACRPAAGGAVHTRGLDFACDIYIWAPLAGTCGVLLLSLVITLYCKRGRKKLLYIFKQPFMRPVQTTQEEDGCSCRFPEEEEGGCELRVKFSRSADAPAYQQGQNQLYNELNLGRREEYDVLDKRRGRDPEMGGKPRRKNPQEGLYNELQKDKMAEAYSEIGMKGERRRGKGHDGLYQGLSTATKDTYDALHMQALPPR", "values": [{"measurement": "effect of lenalidomide on the CAR construct (Western blot)", "setting": "[8]", "value": "did not have any impact"}]}
